Laboratory results taken from patent publication EP0983768A1, “MEDICINAL COMPOSITION FOR PREVENTION OR TREATMENT OF HEPATOPATHY” (Nippon Shinyaku Co., Ltd., priority 1997, dated 1998).
Marks after values point to notes of the source that are not given here.

How the values were obtained:
[1] = tested on: concanavalin A-induced hepatic damage in mice; assay: Inhibitory effect on concanavalin A-induced hepatic damage (plasma transaminase activities GOT, GPT); assay type: in vivo; details: male BALB/c mice; for Inhibition rate (%) i.p. GOT / Inhibition rate (%) p.o. GOT: plasma GOT 24 hours after con A; for Inhibition rate (%) i.p. GPT / Inhibition rate (%) p.o. GPT: plasma GPT 24 hours after con A
Protocol: The hepatic damage inhibitory effect of the adenosine A2 receptor agonist of the invention can be verified by a test using mice as described below. Among the various animal models proposed for the evaluation of hepatic damage inhibitory activity, the disease model used in this test resembles human hepatitis in the mechanism of onset. Using 6-weeks old male BALB/c mice in groups of 17-20, the test drug was administered intraperitoneally or orally. At 30 minutes after intraperitoneal administration of the test drug or 1 hour after oral administration, 0.6 mg of concanavalin A (con A) was administered intravenously to each animal to induce hepatic damage. At 24 hours after administration of con A, plasma transaminase activities [GOT (glutamic-oxaloacetic transaminase), GPT (glutamic-pyruvic transaminase)] were determined. The plasma transaminase activity inhibition rate in each group given a test drug relative to the control group was calculated by means of the following equation. Inhibition rate (%) = [(C-D)/C] × 100 [formula] where C represents the mean value of plasma transaminase activity in the control group and D represents the mean value of plasma transaminase activity in the group given a test drug.

[2] = tested on: ICR mice; details: 1000 mg/kg orally, 7-8 weeks old; cited from earlier work
[3] = 0.3 mg/kg i.p. 30 minutes before con A
[4] = 3 mg/kg i.p. 30 minutes before con A
[5] = 3 mg/kg p.o. 1 hour before con A
[6] = 1 mg/kg i.p. 30 minutes before con A
[7] = 1 mg/kg p.o. 1 hour before con A

| SMILES | Inhibition rate (%) i.p. GOT [1, 3] | Inhibition rate (%) i.p. GPT [1, 3] | Inhibition rate (%) i.p. GOT [1, 4] | Inhibition rate (%) i.p. GPT [1, 4] | Inhibition rate (%) p.o. GOT [1, 5] | Inhibition rate (%) p.o. GPT [1, 5] | Inhibition rate (%) i.p. GOT [1, 6] | Inhibition rate (%) i.p. GPT [1, 6] | Inhibition rate (%) p.o. GOT [1, 7] | Inhibition rate (%) p.o. GPT [1, 7] | death [2] |
| --- | --- | --- | --- | --- | --- | --- | --- | --- | --- | --- | --- |
| CCNC(=O)[C@H]1O[C@@H](n2cnc3c(N)nc(NCCc4ccc(CCC(=O)O)cc4)nc32)[C@H](O)[C@@H]1O [Compound 1, 1-[6-amino-2-[(2-(4-(2-carboxyethyl)phenyl)-ethyl)amino]-9H-purin-9-yl]-1-deoxy-N-ethyl-β-D-ribofuranuronamide] | 85** % | 88** % | 93** % | 98** % | 64* % | 58* % | – | – | – | – | – |
| Nc1nc(Nc2ccccc2)nc2c1ncn2[C@@H]1O[C@H](CO)[C@@H](O)[C@H]1O [Compound 2, 2-(phenylamino)adenosine] | 61** % | 65** % | – | – | – | – | 81** % | 91** % | – | – | – |
| COc1cc(OC)cc(C(CNc2ncnc3c2ncn3[C@@H]2O[C@H](CO)[C@@H](O)[C@H]2O)c2ccccc2C)c1 (stereo partly shown) [Compound 3, N^6-[2-(3,5-dimethoxyphenyl)-2-(2-methylphenyl)ethyl]adenosine] | 61** % | 60** % | 83** % | 87** % | 86** % | 88** % | – | – | – | – | – |
| Nc1ncnc2c1ncn2[C@@H]1O[C@H](C(=O)NC2CC2)[C@@H](O)[C@H]1O [Compound 4, 1-(6-amino-9H-purin-9-yl)-1-deoxy-N-cyclopropyl-β-D-ribofuranuronamide] | – | – | – | – | – | – | – | – | 49** % | 56** % | – |
| CCCCCCC#Cc1nc(N)c2ncn([C@@H]3O[C@H](CO)[C@@H](O)[C@H]3O)c2n1 [Compound 5, 2-(1-octyn-1-yl)adenosine] | 90** % | 96** % | 91** % | 96** % | 93** % | 97** % | – | – | – | – | no death was encountered |
